Experimental data reported in patent publication US12628822B2, “Plant pathogen defence elicitors” (UNIVERSITÉ LIBRE DE BRUXELLES, priority 2020, dated 2026).

Test system: Arabidopsis transcriptome
Assay: cDNA microarray analysis of early transcriptomic changes in Arabidopsis seedlings
Assay type: in vivo, Arabidopsis thaliana
Description: Arabidopsis thaliana Columbia (Col-0) was the accession used for all the experiments. Seeds were surface sterilised by subsequent treatment with 50% v/v Et-OH and 3% bleach solution in agitation for 5 and 10 min, respectively. Seeds were then washed three times with distilled water and stratified for 3 days at 4° C. in the dark. For qPCR analysis and microarray experiments, seeds were sown on square petri dishes ([…]) containing half strength Murashige and Skoog (MS) salt, 2.5 mM MES, 1% w/v sucrose and 0.8% w/v plant agar. The experiments were performed using 14-day old seedlings grown vertically in a controlled growth cabinet with short day conditions ( 8/16 h light/dark; 100 μmol photons m^−2 s^−1) at 22±0.5° C. Treatments were performed by applying 40-50 μl of fresh-prepared and filtered solution per seedling.
For RNA extraction, 14-day old leaves from ten independent plants were collected at the indicated time point after treatments, pooled and frozen in liquid nitrogen. Total RNA was extracted from 100 mg of ground-frozen samples using the Maxwell® LEV Plant RNA Kit (Promega, Madison, WI, USA) and the RNA integrity was determined through NanoDrop 2000 UV-Vis Spectrophotometer (Thermo Scientific, Loughborough, UK). First-strand cDNA was synthesized by using SOLIScript® RT cDNA synthesis MIX (Solis Biodyne, Tartu, Estonia) and qPCRs were performed using SYBR® Selected MasterMix 2× (Applied Biosystems, Thermo Fisher Scientific, Waltham, USA), following the manufacturers' protocols. The cycling conditions consisted of an initial 7 min at 95° C., followed by 40 two-step cycles at 95° C. for 5 s and at 60° C. for 30 s. Melting curve analysis was performed after cycle completion to validate amplicon identity. Relative expression levels were calculated following the standard curve-based method (Larionov et al. A standard curve based method for relative real time PCR data processing, BMC Bioinformatics. 2005, vol. 6, 1) by using ACTIN as reference. Gene-specific primers used in this work are indicated below.
RNA sample preparation for microarray hybridization was carried out as described in the Applied Biosystems™ GeneChip™ Whole Transcript (WT) PLUS Reagent Kit User Guide (Thermo Fisher Scientific, Waltham, MA, USA). Briefly, 200 ng of total RNA was used to generate double-stranded cDNA. Twelve μg of subsequently synthesized cRNA were purified and reverse transcribed into single-stranded (ss)cDNA, where unnatural dUTP residues were incorporated. Purified and labelled sscDNAs were hybridised to Arabidopsis Gene 1.0 ST arrays (Affymetrix, Santa Clara, CA, USA) and the fluorescent signals were measured with an Applied Biosystems™ GeneChip Scanner 3000 7 G System. Sample processing was performed at a Genomics Core Facility, “KFB—Center of Excellence for Fluorescent Bioanalytics” (Regensburg, Germany).
Normalised probe set signals in log2 scale were calculated by using the RMA algorithm. Average linkage hierarchical clusters of differentially expressed genes were generated by using Cluster 3.0 and visualized by java TreeView.
In Arabidopsis, the DAMPs-dependent elicitation of PTI is known to be accompanied by a deep immune gene transcriptional reprogramming. […] The transcriptomic analysis was carried out by using Arabidopsis 1.0 ST microarray chip (Affymetrix, Santa Clara, CA, USA) and Differentially Expressed Genes (DEGs) were selected using two criteria: log2 expression ratios ≥1.5-fold or […] and Student's t-test p-value≤0.05.

[1] = 100 μM, 1 h, 14-day old Arabidopsis plants
[2] = 100 μM, 1 h, Col-0 plants, vs control

## OC[C@H]1O[C@@H](O[C@H]2[C@H](O)[C@@H](O)[C@H](O)O[C@@H]2CO)[C@H](O)[C@@H](O)[C@@H]1O [Cellobiose, β-D-glucopyranosyl(1→4)D-glucopyranose]
[1]
  changes in expression, number of differentially expressed genes: 440 genes
  downregulated genes: 94 genes
  upregulated genes: 346 genes
[2]
  AT1G02360 putative chitinase gene expression: 1.03 fold change
  AT1G02920 glutathione S-transferase F7 gene expression: 1.10 fold change
  AT1G02930 glutathione S-transferase F6 gene expression: 1.18 fold change
  AT1G03220 aspartyl protease-like protein gene expression: 1.08 fold change
  AT1G07400 class I heat shock protein gene expression: 2.58 fold change
  AT1G11100 SNF2, helicase and zinc-finger domain-containing protein gene expression: 1.70 fold change
  AT1G13520 hypothetical protein gene expression: 2.05 fold change
  AT1G14540 peroxidase 4 gene expression: 1.22 fold change
  AT1G16110 wall associated kinase-like 6 gene expression: 1.46 fold change
  AT1G18382 gene expression: 1.39 fold change
  AT1G18570 myb domain protein 51 gene expression: 1.46 fold change
  AT1G19020 hypothetical protein gene expression: 1.68 fold change
  AT1G24145 hypothetical protein gene expression: 1.15 fold change
  AT1G27020 hypothetical protein gene expression: 1.06 fold change
  AT1G30700 FAD-binding Berberine family protein gene expression: 1.73 fold change
  AT1G30755 hypothetical protein gene expression: 1.08 fold change
  AT1G36622 hypothetical protein gene expression: 1.62 fold change
  AT1G36640 hypothetical protein gene expression: 1.27 fold change
  AT1G49000 hypothetical protein gene expression: 1.67 fold change
  AT1G51790 leucine-rich repeat protein kinase-like protein gene expression: 1.99 fold change
  AT1G51800 putative leucine-rich repeat protein kinase gene expression: 2.44 fold change
  AT1G51820 SIF2 gene expression: 6.99 fold change
  AT1G51850 Leucine-rich repeat protein kinase family protein gene expression: 4.14 fold change
  AT1G51890 probable LRR receptor-like protein kinase gene expression: 1.91 fold change
  AT1G51920 hypothetical protein gene expression: 1.55 fold change
  AT1G52200 PLAC8 family protein gene expression: 1.57 fold change
  AT1G53625 hypothetical protein gene expression: 1.55 fold change
  AT1G54050 CIII heat shock protein 17.4 gene expression: 1.36 fold change
  AT1G55450 S-adenosyl-L-methionine-dependent methyltransferases superfamily protein gene expression: 1.19 fold change
  AT1G59865 hypothetical protein gene expression: 2.57 fold change
  AT1G61360 G-type lectin S-receptor-like serine/threonine-protein kinase gene expression: 1.18 fold change
  AT1G61560 MLO-like protein 6 gene expression: 1.14 fold change
  AT1G64400 long-chain acyl-CoA synthetase gene expression: 1.18 fold change
  AT1G65845 hypothetical protein gene expression: 1.99 fold change
  AT1G74310 chaperone protein ClpB1 gene expression: 2.87 fold change
  AT1G79680 wall-associated receptor kinase-like 10 gene expression: 1.62 fold change
  AT2G02010 glutamate decarboxylase 4 gene expression: 1.11 fold change
  AT2G15220 basic secretory protein family protein gene expression: 1.08 fold change
  AT2G17740 cysteine/histidine-rich C1 domain-containing protein gene expression: 1.04 fold change
  AT2G19190 FLG22-induced receptor-like kinase 1 gene expression: 1.38 fold change
  AT2G22880 VQ motif-containing protein gene expression: 1.35 fold change
  AT2G26150 heat stress transcription factor A-2 gene expression: 2.19 fold change
  AT2G26560 phospholipase A 2A gene expression: 2.02 fold change
  AT2G27660 cysteine/histidine-rich C1 domain-containing protein gene expression: 1.63 fold change
  AT2G29500 HSP20 family protein gene expression: 3.11 fold change
  AT2G36220 hypothetical protein gene expression: 1.44 fold change
  AT2G36690 2-oxoglutarate (2OG) and Fe(II)-dependent oxygenase superfamily protein gene expression: 1.99 fold change
  AT2G38870 PR-6 proteinase inhibitor family protein gene expression: 1.27 fold change
  AT2G39200 protein MILDEW RESISTANCE LOCUS O 12 gene expression: 2.09 fold change
  AT2G39210 major facilitator protein gene expression: 1.67 fold change
  AT2G39518 hypothetical protein gene expression: 2.22 fold change
  AT2G43620 chitinase family protein gene expression: 2.15 fold change
  AT2G44490 PEN2 gene expression: 1.20 fold change
  AT2G46240 BCL-2-associated athanogene 6 gene expression: 2.00 fold change
  AT3G08970 J domain protein ATERDJ3A gene expression: 2.46 fold change
  AT3G09350 protein Fes1A gene expression: 2.18 fold change
  AT3G12580 heat shock protein 70-4 gene expression: 3.24 fold change
  AT3G12910 no apical meristem domain-containing transcriptional regulator gene expression: 1.36 fold change
  AT3G14200 chaperone DnaJ-domain containing protein gene expression: 2.55 fold change
  AT3G15500 ATAF-like NAC-domain transcription factor gene expression: 1.20 fold change
  AT3G16030 G-type lectin S-receptor-like serine/threonine-protein kinase CES101 gene expression: 1.47 fold change
  AT3G22060 Receptor-like protein kinase-related family protein gene expression: 1.31 fold change
  AT3G24500 multiprotein-bridging factor 1c gene expression: 1.75 fold change
  AT3G26210 cytochrome P450 71B23 gene expression: 1.35 fold change
  AT3G46280 protein kinase-like protein gene expression: 4.51 fold change
  AT3G51910 heat stress transcription factor A-7a gene expression: 1.35 fold change
  AT3G54420 chitinase class IV gene expression: 1.74 fold change
  AT4G01750 rhamnogalacturonan xylosyltransferase 2 gene expression: 2.59 fold change
  AT4G11890 receptor-like cytosolic kinase ARCK1 gene expression: 1.75 fold change
  AT4G12400 carboxylate clamp-tetratricopeptide repeat protein gene expression: 3.23 fold change
  AT4G15233 ABC transporter G family member 42 gene expression: 1.66 fold change
  AT4G21120 amino acid transporter 1 gene expression: 1.07 fold change
  AT4G22470 protease inhibitor/seed storage/lipid transfer protein (LTP) family protein gene expression: 1.77 fold change
  AT4G22710 cytochrome P450, family 706, subfamily A, polypeptide 2 gene expression: 1.15 fold change
  AT4G23220 cysteine-rich receptor-like protein kinase 14 gene expression: 1.69 fold change
  AT4G23280 putative cysteine-rich receptor-like protein kinase 20 gene expression: 1.14 fold change
  AT4G23570 phosphatase SGT1a gene expression: 2.22 fold change
  AT4G25110 metacaspase 2 gene expression: 1.74 fold change
  AT4G26200 1-aminocyclopropane-1-carboxylate synthase 7 gene expression: 2.14 fold change
  AT4G27280 EF-hand, calcium binding motif-containing protein gene expression: 1.33 fold change
  AT4G38550 phospholipase like protein (PEARLI 4) family gene expression: 1.60 fold change
  AT5G05300 hypothetical protein gene expression: 1.78 fold change
  AT5G10695 hypothetical protein gene expression: 2.27 fold change
  AT5G14470 GHMP kinase family protein gene expression: 1.21 fold change
  AT5G15870 glycosyl hydrolase family 81 protein gene expression: 1.14 fold change
  AT5G19230 GPI-anchored glycoprotein membrane precursor gene expression: 1.24 fold change
  AT5G35320 hypothetical protein gene expression: 1.02 fold change
  AT5G37600 glutamine synthetase 1; 1 gene expression: 1.56 fold change
  AT5G37670 heat shock protein 15.7 gene expression: 1.04 fold change
  AT5G39020 putative receptor-like protein kinase gene expression: 1.02 fold change
  AT5G39580 peroxidase 62 gene expression: 3.82 fold change
  AT5G44070 glutathione gamma-glutamylcysteinyltransferase 1 gene expression: 1.44 fold change
  AT5G44585 hypothetical protein gene expression: 2.20 fold change
  AT5G44910 Toll-Interleukin-Resistance domain-containing protein gene expression: 1.10 fold change
  AT5G46050 peptide transporter 3 gene expression: 1.74 fold change
  AT5G48530 hypothetical protein gene expression: 2.07 fold change
  AT5G48540 receptor-like protein kinase-related family protein gene expression: 1.85 fold change
  AT5G48570 peptidyl-prolyl cis-trans isomerase FKBP65 gene expression: 3.39 fold change
  AT5G51440 heat shock protein 23.5 gene expression: 1.36 fold change
  AT5G52640 heat shock protein 90.1 gene expression: 3.70 fold change
  AT5G57220 cytochrome P450, family 81, subfamily F, polypeptide 2 gene expression: 1.07 fold change
  AT5G62020 heat stress transcription factor B-2a gene expression: 1.00 fold change
  AT5G64120 peroxidase 71 gene expression: 1.42 fold change
  AT5G67450 zinc-finger protein 1 gene expression: 1.44 fold change
100 μM, 1 h, microarray
  MYB51 (AT1G18570) Expression: 1.46 Fold change (treatment/CTR)
  MYB73 (AT4G37260) Expression: 1.06 Fold change (treatment/CTR)
  NAC047 (AT3G04070) Expression: 1.81 Fold change (treatment/CTR)
  NAC055 (AT3G15500) Expression: 1.20 Fold change (treatment/CTR)
  NAC057 (AT3G17730) Expression: 1.40 Fold change (treatment/CTR)
  NAC058 (AT3G18400) Expression: 1.41 Fold change (treatment/CTR)
  NAC078 (AT5G04410) Expression: 1.31 Fold change (treatment/CTR)
  Target of MYB protein 1 (AT1G76970) Expression: 1.64 Fold change (treatment/CTR)
  WRKY11 (AT4G31550) Expression: 1.95 Fold change (treatment/CTR)
  WRKY15 (AT2G23320) Expression: −1.06 Fold change (treatment/CTR)
  WRKY18 (AT4G31800) Expression: 4.02 Fold change (treatment/CTR)
  WRKY22 (AT4G01250) Expression: 2.34 Fold change (treatment/CTR)
  WRKY30 (AT5G24110) Expression: 1.30 Fold change (treatment/CTR)
  WRKY33 (AT2G38470) Expression: 1.33 Fold change (treatment/CTR)
  WRKY40 (AT1G80840) Expression: −1.05 Fold change (treatment/CTR)
  WRKY61 (AT1G18860) Expression: −1.05 Fold change (treatment/CTR)
  WRKY72 (AT5G15130) Expression: 1.41 Fold change (treatment/CTR)
Vs CTR
  LOX4 (AT1G72520) gene expression, Microarray: 1.68 fold change
  MPK3 (AT3G45640) gene expression, Microarray: 1.22 fold change
  MPK6 (AT2G43790) gene expression, Microarray: −1.06 fold change
  PAD3 (AT3G26830) gene expression, Microarray: −1.04 fold change
  PEN3 (AT1G59870) gene expression, Microarray: 1.55 fold change
  PR1 (AT2G14610) gene expression, Microarray: 1.91 fold change
  WRKY18 (AT4G31800) gene expression, Microarray: 4.02 fold change
  WRKY22 (AT4G01250) gene expression, Microarray: 2.34 fold change
  WRKY33 (AT2G38470) gene expression, Microarray: 1.33 fold change
Vs mock
  IGMT2 (At1G21120) gene expression, Microarray: −1.14 fold change
